{
  "source": "patent US8754071B2",
  "about": "(priority 2011, dated 2014)",
  "note": "pIC50: −log10 of the molar value.",
  "data": [
    {"target": "T1, c-kit (Homo sapiens, UniProt P10721)", "T1 construct": "human Mo7e cells which endogenously express c-kit; endogenous in cells; host or cells: human Mo7e cells (promegakaryocytic leukemia line), stimulated with human recombinant SCF", "T1 sequence (P10721 26-976)": "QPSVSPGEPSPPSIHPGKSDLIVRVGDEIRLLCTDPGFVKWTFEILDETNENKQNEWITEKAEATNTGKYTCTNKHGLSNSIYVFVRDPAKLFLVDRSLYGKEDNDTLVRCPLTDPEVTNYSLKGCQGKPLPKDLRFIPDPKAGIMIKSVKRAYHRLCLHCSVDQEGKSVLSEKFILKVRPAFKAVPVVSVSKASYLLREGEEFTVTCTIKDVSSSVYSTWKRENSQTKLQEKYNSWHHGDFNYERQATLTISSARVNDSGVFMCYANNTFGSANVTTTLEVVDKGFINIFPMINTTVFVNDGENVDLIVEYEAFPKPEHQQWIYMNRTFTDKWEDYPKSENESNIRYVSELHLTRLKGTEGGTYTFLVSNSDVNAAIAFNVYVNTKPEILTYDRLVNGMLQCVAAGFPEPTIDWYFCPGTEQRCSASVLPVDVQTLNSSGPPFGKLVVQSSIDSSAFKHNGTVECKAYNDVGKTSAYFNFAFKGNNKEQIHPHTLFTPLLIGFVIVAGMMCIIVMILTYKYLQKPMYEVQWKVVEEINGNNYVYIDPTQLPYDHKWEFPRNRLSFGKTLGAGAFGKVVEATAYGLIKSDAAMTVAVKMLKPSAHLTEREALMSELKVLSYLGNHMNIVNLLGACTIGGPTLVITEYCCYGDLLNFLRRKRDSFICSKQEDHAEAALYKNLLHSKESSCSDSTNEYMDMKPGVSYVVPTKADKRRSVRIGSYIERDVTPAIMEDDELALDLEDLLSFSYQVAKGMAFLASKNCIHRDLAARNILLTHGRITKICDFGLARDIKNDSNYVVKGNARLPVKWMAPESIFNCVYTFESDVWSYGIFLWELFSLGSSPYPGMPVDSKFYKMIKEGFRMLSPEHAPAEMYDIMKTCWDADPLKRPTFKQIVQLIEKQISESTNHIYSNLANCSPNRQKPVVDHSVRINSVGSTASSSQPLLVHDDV", "test": "Mo7e cell proliferation assay (SCF dependent proliferation)", "assay_type": "cell-based", "settings": "Table 1; human Mo7e cells stimulated with SCF, 48 hours, CellTiter Glo; 1% FBS; read-out: c-kit (Mo7e)", "in_short": "(§1)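 Human Mo7e cells with endogenous c-kit, proliferation driven by SCF, 384-well format. After 48 h at 37 °C viability read by CellTiter-Glo luminescence. IC50 taken as concentration giving response halfway between baseline and maximum.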", "values": [
      {"smiles": "Cc1ccc(-c2noc(C3CN(S(C)(=O)=O)CCO3)n2)cc1NC(=O)c1cnc2ccccn12", "note": "(stereo not shown) [F35]", "pIC50": 7.18},
      {"smiles": "Cc1ccc(-c2noc(CN3CC(F)(F)C(F)(F)C3)n2)cc1NC(=O)c1cnc2ccccn12", "note": "[F42]", "pIC50": 7.89},
      {"smiles": "CCOC(=O)N1CC(c2nc(-c3ccc(C)c(NC(=O)c4cnc5ccccn45)c3)no2)C1", "note": "[F53]", "pIC50": 7.03},
      {"smiles": "Cc1ccc(-c2noc(C3CN(S(C)(=O)=O)C3)n2)cc1NC(=O)c1cnc2ccccn12", "note": "[F14]", "pIC50": 7.38},
      {"smiles": "COC(=O)N1CC(c2nc(-c3ccc(C)c(NC(=O)c4cnc5ccc(CCN6CCOCC6)cn45)c3)no2)C1", "note": "[F66, methyl 3-(3-(4-methyl-3-(6-(2-morpholinoethyl)imidazo[1,2-a]pyridine-3-carboxamido)phenyl)-1,2,4-oxadiazol-5-yl)azetidine-1-carboxylate]", "pIC50": 7.30},
      {"smiles": "CCCCS(=O)(=O)N1CC(c2nc(-c3ccc(C)c(NC(=O)c4cnc5ccccn45)c3)no2)C1", "note": "[F31]", "pIC50": 7.27},
      {"smiles": "COC(=O)N1CCC[C@H]1Cc1nc(-c2ccc(C)c(NC(=O)c3cnc4ccccn34)c2)no1", "note": "[F40]", "pIC50": 7.03},
      {"smiles": "Cc1ccc(-c2noc(CC3CCCCO3)n2)cc1NC(=O)c1cnc2ccccn12", "note": "(stereo not shown) [F44]", "pIC50": 7.77},
      {"smiles": "Cc1ccc(-c2noc(CN3CC(F)(F)C3)n2)cc1NC(=O)c1cnc2ccccn12", "note": "[F21]", "pIC50": 7.36}
    ]},
    {"target": "T1, c-kit", "test": "Mo7e cell proliferation assay (SCF dependent proliferation)", "assay_type": "cell-based", "settings": "Table 2; human Mo7e cells stimulated with SCF, 48 hours, CellTiter Glo; 1% FBS; read-out: c-kit (Mo7e)", "in_short": "as §1", "values": [
      {"smiles": "Cc1ccc(-c2noc([C@@H]3C[C@H](O)CN3S(C)(=O)=O)n2)cc1NC(=O)c1cnc2ccc(F)cn12", "note": "[F287]", "pIC50": 5.77},
      {"smiles": "Cc1ccc(-c2noc(CC3CCNCC3)n2)cc1NC(=O)c1cnc2ccccn12", "note": "[F289]", "pIC50": 5.72},
      {"smiles": "Cc1nc(N2CC(c3nc(-c4ccc(C)c(NC(=O)c5cnc6ccccn56)c4)no3)C2)no1", "note": "[F244]", "pIC50": 6.75},
      {"smiles": "Cc1ccc(-c2noc(C3CCCN3C(=O)OC(C)(C)C)n2)cc1NC(=O)c1cnc2ccccn12", "note": "(stereo not shown) [F106]", "pIC50": 6.03},
      {"smiles": "CCCS(=O)(=O)N1CC(c2nc(-c3ccc(F)c(NC(=O)c4cnc5ccccn45)c3)no2)C1", "note": "[F156]", "pIC50": 6.91},
      {"smiles": "Cc1ccc(-c2noc(CC3CCN(C(=O)OC(C)(C)C)CC3)n2)cc1NC(=O)c1cnc2ccccn12", "note": "[F210]", "pIC50": 6.15},
      {"smiles": "Cc1ccc(-c2noc(C3CN(S(=O)(=O)NC(=O)OC(C)(C)C)C3)n2)cc1NC(=O)c1cnc2ccccn12", "note": "[F133]", "pIC50": 6.86},
      {"smiles": "Cc1ccc(-c2noc(C3CCOCC3)n2)cc1NC(=O)c1cnc2ccccn12", "note": "[F102]", "pIC50": 6.54},
      {"smiles": "Cc1ccc(-c2noc(C[C@@H]3CCN(C(=O)OC(C)(C)C)C3)n2)cc1NC(=O)c1cnc2ccccn12", "note": "[F184]", "pIC50": 6.30},
      {"smiles": "Cc1ccc(-c2noc([C@H]3CCCN3S(C)(=O)=O)n2)cc1NC(=O)c1cnc2ccccn12", "note": "[F213]", "pIC50": 6.86},
      {"smiles": "Cc1ccc(-c2noc(CCC(=O)N3CCOCC3)n2)cc1NC(=O)c1cnc2ccccn12", "note": "[F124]", "pIC50": 6.37},
      {"smiles": "Cc1ccc(-c2noc(C3CN(C(=O)OC(C)(C)C)CCO3)n2)cc1NC(=O)c1cnc2ccccn12", "note": "(stereo not shown) [F175]", "pIC50": 6.14},
      {"smiles": "Cc1ccc2ncc(C(=O)Nc3cc(-c4noc(COC5CNC5)n4)ccc3C)n2c1", "note": "[F293]", "pIC50": 5.67},
      {"smiles": "COC(=O)N1CC[C@H]1c1nc(-c2ccc(C)c(NC(=O)c3cnc4ccccn34)c2)no1", "note": "[F151]", "pIC50": 6.45},
      {"smiles": "Cc1ccc(-c2noc(C3CNC3)n2)cc1NC(=O)c1cnc2ccccn12", "note": "[F298]", "pIC50": 5.54},
      {"smiles": "COC(=O)N1CCC[C@H](c2nc(-c3ccc(C)c(NC(=O)c4cnc5ccccn45)c3)no2)C1", "note": "[F208]", "pIC50": 6.87},
      {"smiles": "Cc1ccc(-c2noc(C3CCC(O)CO3)n2)cc1NC(=O)c1cnc2ccccn12", "note": "(stereo not shown) [F112]", "pIC50": 6.64},
      {"smiles": "Cc1ccc(-c2noc(C3(C)CN(C(=O)OC(C)(C)C)C3)n2)cc1NC(=O)c1cnc2ccccn12", "note": "[F239]", "pIC50": 6.08},
      {"smiles": "Cc1ccc(-c2noc([C@@H]3COCCN3S(C)(=O)=O)n2)cc1NC(=O)c1cnc2ccccn12", "note": "[F165]", "pIC50": 6.44},
      {"smiles": "Cc1ccc(-c2noc([C@H]3CNCCO3)n2)cc1NC(=O)c1cnc2ccccn12", "note": "[F189]", "pIC50": 6.08},
      {"smiles": "Cc1ccc(-c2noc([C@@H]3CCCN3)n2)cc1NC(=O)c1cnc2ccccn12", "note": "[F190]", "pIC50": 6.32},
      {"smiles": "CC(=O)N1CCC(c2nc(-c3ccc(C)c(NC(=O)c4cnc5ccccn45)c3)no2)C1", "note": "(stereo not shown) [F171]", "pIC50": 6.62},
      {"smiles": "COC(=O)N1CC(c2nc(-c3ccc(C)c(NC(=O)c4cnc5c(F)cccn45)c3)no2)C1", "note": "[F242]", "pIC50": 6.09},
      {"smiles": "Cc1ccc(-c2noc(CNC(=O)C3CCOCC3)n2)cc1NC(=O)c1cnc2ccccn12", "note": "[F149]", "pIC50": 6.16},
      {"smiles": "COC(=O)N1CC(c2nc(-c3ccc(C)c(NC(=O)c4cnc5ccc(CCC(=O)OC(C)(C)C)cn45)c3)no2)C1", "note": "[F241]", "pIC50": 6.94},
      {"smiles": "COC(=O)N1CC(c2nc(-c3ccc(C)c(NC(=O)c4cnc5ccc(CCc6nn[nH]n6)cn45)c3)no2)C1", "note": "[F308]", "pIC50": "< 5.00"},
      {"smiles": "COCC1CN(Cc2nc(-c3ccc(C)c(NC(=O)c4cnc5ccccn45)c3)no2)C1", "note": "[F182]", "pIC50": 6.59},
      {"smiles": "Cc1cc(F)c(-c2noc(C3CN(C(=O)OC(C)(C)C)C3)n2)cc1NC(=O)c1cnc2ccccn12", "note": "[F279]", "pIC50": 5.89}
    ]}
  ]
}
